Test results reported in patent US7521438B1, “Combination of loteprednol and β2-adrenoceptor agonists” (MEDA Pharma GmbH & Co. KG, priority 1999, dated 2009).

What was measured:
[1] = test system: eosinophilic granulocytes in the lung; assay: Late-phase eosinophilia in actively sensitized guinea pigs, pulmonary lavage 24 h after allergen provocation; assay type: in vivo; settings: guinea pig
[2] = topically administered; cited from earlier work
TNFα release = assay: LPS-induced TNFα release in human blood diluted 1:5 (ELISA); assay type: cell-based; settings: human blood diluted 1:5, LPS 10 μg/ml, 24 h, n = 8
Protocol: In vitro investigations were carried out for influencing the release of the proinflammatory cytokine TNFα in human blood diluted 1:5. Stimulation was carried out using lipopolysaccharide (LPS) of Salmonella abortus equi (10 μg/ml) over the course of 24 h at 37° C. and 5% CO2 in an incubator. The TNFα release was carried out using an ELISA, composed from antibodies from Pharmigen. The results were indicated as the percentage inhibition of LPS-induced TNFα release (Table 1).

[3] = topically administered; cited from earlier work; remark: listed apart in the source
[4] = Thymus involution in young rats on intrapulmonary powder administration over 29 days; assay type: in vivo; settings: for Toxic dose with significant thymus involution: repeated intrapulmonary administration, 29 days, 1x daily, young rats; for Quotient of toxic dose: therapeutic dose (therapeutic breadth): toxic dose (mg/kg, 29 days) / ID50 (μg/kg, single dose), intrapulmonary, rats
Protocol: In the second experiment, the influence of loteprednol on the thymus development of young rats (21 days old at the start of the experiment) was intensively investigated in comparison to budesonide and fluticasone (see Table 4). After an intrapulmonary long-term administration of the active compound in powder form over the course of 29 days (1× daily) by means of a tube, at the end of the experiment the thymus glands were removed and the organ weight per 100 g of body mass was determined.
(§1) The therapeutic breadth of the corticosteroids was determined with the aid of the quotient of the dose (mg/kg) with significant thymus involution (toxic dose) on repeated intrapulmonary administration over the course of 29 days (1× daily) and the therapeutic dose. The therapeutic dose was determined in the asthma model of late-phase eosinophilia on actively sensitized brown Norway rats. The active compound was administered to the sensitized brown Norway rats under anesthesia intrapulmonarily 2 hours before an allergen provocation (challenge) and 24 hours later the lungs of the animals were lavaged under deep anesthesia. The number of eosinophilic granulocytes in the pulmonary lavage fluid of untreated and active compound-treated rats was then determined. Corticosteroids such as loteprednol inhibit the infiltration of eosinophils into the lung after allergen provocation.

[5] = test system: eosinophilic granulocytes in the pulmonary lavage fluid; assay: Late-phase eosinophilia in actively sensitized brown Norway rats, single intrapulmonary administration; assay type: in vivo; settings: 2 h before allergen provocation
Protocol: as §1

Row | Structure (SMILES) | Inhibition of eosinophilia ([1]; 0.001 mg/kg intrapulmonarily) [%] | Inhibition of eosinophilia ([1]; 0.003 mg/kg intrapulmonarily) [%] | Detection in the plasma [2] | inhibition at 0.001 µM (TNFα release; 0.001 μmol/l) [%] | Increase of intraocular pressure [3] | Toxic dose with significant thymus involution [4] [µg/kg] | Quotient of toxic dose: therapeutic dose (therapeutic breadth) [4] | Therapeutic dose in late-phase eosinophilia ID50 [5] [µg/kg] | inhibition at 10 µM (TNFα release; 10 μmol/l) [%]
1 | CCOC(=O)O[C@]1(C(=O)OCCl)CC[C@H]2[C@@H]3CCC4=CC(=O)C=C[C@]4(C)[C@H]3[C@@H](O)C[C@@]21C [Loteprednol, loteprednol] | 10.5 | 21.8 | could not be detected in the plasma | 1 | does not increase the intraocular pressure | 20000 | 45.5 ×10^3 | 0.44 | 
2 | C[C@@H]1C[C@H]2[C@@H]3C[C@H](F)C4=CC(=O)C=C[C@]4(C)[C@@]3(F)[C@@H](O)C[C@]2(C)[C@@]1(O)C(=O)SCF [Fluticasone, fluticasone] |  |  |  |  |  | 1000 | 33 ×10^3 | 0.03 | 
3 | CC(C)(C)NCC(O)c1ccc(O)c(CO)c1 (stereo not drawn) [Salbutamol, salbutamol] |  |  |  |  |  |  |  |  | 17
4 | CCCC1O[C@@H]2C[C@H]3[C@@H]4CCC5=CC(=O)C=C[C@]5(C)[C@H]4[C@@H](O)C[C@]3(C)[C@]2(C(=O)CO)O1 (stereo partly drawn) [Budesonide, budesonide] |  |  |  |  |  | 500 | 5 ×10^3 | 0.1 | 
